Assay results as given in patent publication US11091478B2 (Fochon Pharmaceuticals, Ltd., priority 2017, dated 2021).

Assays:
[1] = tested on: RS4;11 cells; assay: Cell proliferation assay (MTS), RS4;11 cells, 72 h; format: cell-based; details: Homo sapiens, RS4-11, 72 h
Description: Cell Proliferation Assays
MTS testing kit was purchased from Promega. The RPMI-1640, Fetal bovine serum and Penicillin-Streptomycin were purchased from Gibco. Dimethyl sulfoxide (DMSO) was purchased from Sigma.
To investigate whether a compound is able to inhibit the activity of BCL-2 in cells, a mechanism-based assay using DOHH2 (DSMZ No.® ACC 47) and RS4;11 (ATCC® CRL-1873™) cell was developed. In this assay, inhibition of Bcl-2 was detected by the inhibition of DOHH2 cells proliferation. DOHH2 cells were cultured in culture flasks to 40-80% confluence in RPMI-1640 plus 10% fetal bovine serum. Cells were collected and plated onto 96-well plates at desired cell density (5000 cells/well). Plates were incubated overnight at 37° C., with 5% CO2 to adhere. Compounds were added to the plates, and the final compound concentrations were 10000, 3333, 1111, […], 124, 41, 14, 4.6 and 1.5 nM. Plates plated with DOHH2 or RS4;11 cells were placed at 37° C., with 5% CO2 for 120 h (DOHH2) or 72 h (RS4;11) respectively. 20 μl MTS/100 μl medium mixture solution were added to each well and incubate the plates for exactly 2 hours. The reaction was stopped by adding 25 μl 10% SDS per well. Measure absorbance at 490 nm and 650 nm (reference wavelength). IC50 was calculated using GraphPad Prism 5.0.
Select compounds prepared as described above were assayed according to the biological procedures described herein.

[2] = tested on: DOHH2 cells; assay: Cell proliferation assay (MTS), DOHH2 cells, 120 h; format: cell-based; details: Homo sapiens, DOHH-2, 120 h
Procedure, shortened: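 Proliferation was scored by MTS (2 h, then SDS stop, A490 with 650 nm reference) and IC50 derived. Compound ran at nine final concentrations from 1.5 to 10000 nM. DOHH2 were incubated 120 h and RS4;11 72 h, both plated at 5000 cells/well in RPMI-1640 plus 10% FBS.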

Row | Structure (SMILES) | IC50 [1] [nM] | IC50 [2] [nM]
1 | CC1(C)CCC(CN2CCN(c3ccc(C(=O)NS(=O)(=O)c4cc5c(c([N+](=O)[O-])c4)N[C@@H](CCO)C5)c(Oc4cnc5[nH]ccc5c4)c3)CC2)=C(c2ccc(Cl)cc2)C1 [Example 1-19, (R)-2-((1H-pyrrolo[2,3-b]pyridin-5-yl)oxy)-4-(4-((4′-chloro-5,5-dimethyl-3,4,5,6-tetra-hydro-[1,1′-biphenyl]-2-yl)methyl)piperazin-1-yl)-N-((2-(2-hydroxyethyl)-7-nitro-indolin-5-yl)sulfonyl)benzamide] | 93 | 96
2 | CC1(C)CCC(CN2CCN(c3ccc(C(=O)NS(=O)(=O)c4cc([N+](=O)[O-])c5[nH]c(CN6CCOCC6)cc5c4)c(Oc4cnc5[nH]ccc5c4)c3)CC2)=C(c2ccc(Cl)cc2)C1 [Example 1-21, 2-((1H-pyrrolo[2,3-b]pyridin-5-yl)oxy)-4-(4-((4′-chloro-5,5-dimethyl-3,4,5,6-tetra-hydro-[1,1′-biphenyl]-2-yl)methyl)piperazin-1-yl)-N-((2-(morpholino-methyl)-7-nitro-1H-indol-5-yl)sulfonyl)benzamide] | 1 | 12
3 | COC(=O)C[C@@H]1Cc2cc(S(=O)(=O)NC(=O)c3ccc(N4CCN(CC5=C(c6ccc(Cl)cc6)CC(C)(C)CC5)CC4)cc3Oc3cnc4[nH]ccc4c3)cc([N+](=O)[O-])c2N1 [Example 1-22, methyl (S)-2-(5-(N-(2-((1H-pyrrolo[2,3-b]pyridin-5-yl)oxy)-4-(4-((4′-chloro-5,5-dimethyl-3,4,5,6-tetrahydro-[1,1′-biphenyl]-2-yl)methyl)piperazin-1-yl)benzoyl)sulfamoyl)-7-nitro-indolin-2-yl)acetate] | 47 | 175
4 | CN(C)C(=O)C[C@@H]1Cc2cc(S(=O)(=O)NC(=O)c3ccc(N4CCN(CC5=C(c6ccc(Cl)cc6)CC(C)(C)CC5)CC4)cc3Oc3cnc4[nH]ccc4c3)cc([N+](=O)[O-])c2N1 [Example 1-23, (S)-2-((1H-pyrrolo[2,3-b]pyridin-5-yl)oxy)-4-(4-((4′-chloro-5,5-dimethyl-3,4,5,6-tetra-hydro-[1,1′-biphenyl]-2-yl)methyl)piperazin-1-yl)-N-((2-(2-(dimethylamino)-2-oxoeth-yl)-7-nitroindolin-5-yl)sulfonyl)benzamide] | 20 | 57
5 | CC1(C)CCC(CN2CCN(c3ccc(C(=O)NS(=O)(=O)c4cc5c(c([N+](=O)[O-])c4)N[C@H](CC(=O)N4CCOCC4)C5)c(Oc4cnc5[nH]ccc5c4)c3)CC2)=C(c2ccc(Cl)cc2)C1 [Example 1-24, (S)-2-((1H-pyrrolo[2,3-b]pyridin-5-yl)oxy)-4-(4-((4′-chloro-5,5-dimethyl-3,4,5,6-tetra-hydro-[1,1′-biphenyl]-2-yl)methyl)piperazin-1-yl)-N-((2-(2-morpholino-2-oxoethyl)-7-nitroindolin-5-yl)sulfonyl)benzamide] | 73 | 41
6 | CN1CCN(C(=O)C[C@H]2Cc3cc(S(=O)(=O)NC(=O)c4ccc(N5CCN(CC6=C(c7ccc(Cl)cc7)CC(C)(C)CC6)CC5)cc4Oc4cnc5[nH]ccc5c4)cc([N+](=O)[O-])c3N2)CC1 [Example 1-25] | 6 | 6
7 | CC1(C)CCC(CN2CCN(c3ccc(C(=O)NS(=O)(=O)c4cc5c(c([N+](=O)[O-])c4)N[C@@H](CC(=O)N4CCOCC4)C5)c(Oc4cnc5[nH]ccc5c4)c3)CC2)=C(c2ccc(Cl)cc2)C1 [Example 1-26, (R)-2-((1H-pyrrolo[2,3-b]pyridin-5-yl)oxy)-4-(4-((4′-chloro-5,5-dimethyl-3,4,5,6-tetra-hydro-[1,1′-biphenyl]-2-yl)methyl)piperazin-1-yl)-N-((2-(2-morpholino-2-oxoethyl)-7-nitroindolin-5-yl)sulfonyl)benzamide] | 12 | 102
8 | CN1CCN(C[C@H]2COc3cc(S(=O)(=O)NC(=O)c4ccc(N5CCN(CC6=C(c7ccc(Cl)cc7)CC(C)(C)CC6)CC5)cc4Oc4cnc5[nH]ccc5c4)cc([N+](=O)[O-])c3N2)CC1 [Example 2-1, (S)-2-((1H-pyrrolo[2,3-b]pyridin-5-yl)oxy)-4-(4-((4′-chloro-5,5-dimethyl-3,4,5,6-tetrahydro-[1,1′-biphenyl]-2-yl)methyl)piperazin-1-yl)-N-((3-((4-methylpiperazin-1-yl)methyl)-5-nitro-3,4-dihydro-2H-benzo[b][1,4]oxazin-7-yl)sulfonyl)benzamide] | 1 | 6
9 | CC1(C)CCC(CN2CCN(c3ccc(C(=O)NS(=O)(=O)c4cc5c(c([N+](=O)[O-])c4)N[C@H](CCN4CCOCC4)CO5)c(Oc4cnc5[nH]ccc5c4)c3)CC2)=C(c2ccc(Cl)cc2)C1 [Example 2-2] | 2 | 8
10 | CC1(C)CCC(CN2CCN(c3ccc(C(=O)NS(=O)(=O)c4cc5c(c([N+](=O)[O-])c4)N[C@H](CN4CCOCC4)CO5)c(Oc4cnc5[nH]ccc5c4)c3)CC2)=C(c2ccc(Cl)cc2)C1 [Example 2-5, (R)-2-((1H-pyrrolo[2,3-b]pyridin-5-yl)oxy)-4-(4-((4′-chloro-5,5-dimethyl-3,4,5,6-tetra-hydro-[1,1′-biphenyl]-2-yl)methyl)piperazin-1-yl)-N-((3-(morpholinomethyl)-5-nitro-3,4-dihydro-2H-benzo[b][1,4]oxazin-7-yl)sulfonyl)benzamide] | 3 | 12
11 | CC1(C)CCC(CN2CCN(c3ccc(C(=O)NS(=O)(=O)c4cc5c(c([N+](=O)[O-])c4)N[C@H](CN4CCC(C)(O)CC4)CO5)c(Oc4cnc5[nH]ccc5c4)c3)CC2)=C(c2ccc(Cl)cc2)C1 [Example 2-6, (R)-2-((1H-pyrrolo[2,3-b]pyridin-5-yl)oxy)-4-(4-((4′-chloro-5,5-dimethyl-3,4,5,6-tetra-hydro-[1,1′-biphenyl]-2-yl)methyl)piperazin-1-yl)-N-((3-((4-hydroxy-4-methylpiperdin-1-yl)methyl)-5-nitro-3,4-dihydro-2H-benzo[b][1,4]oxazin-7-yl)sulfonyl)benzamide] | 2 | 18
12 | CN(C)C[C@@H]1COc2cc(S(=O)(=O)NC(=O)c3ccc(N4CCN(CC5=C(c6ccc(Cl)cc6)CC(C)(C)CC5)CC4)cc3Oc3cnc4[nH]ccc4c3)cc([N+](=O)[O-])c2N1 [Example 2-7, (R)-2-((1H-pyrrolo[2,3-b]pyridin-5-yl)oxy)-4-(4-((4′-chloro-5,5-dimethyl-3,4,5,6-tetra-hydro-[1,1′-biphenyl]-2-yl)methyl)piperazin-1-yl)-N-((3-((dimethylamino)methyl)-5-nitro-3,4-dihydro-2H-benzo[b][1,4]oxazin-7-yl)sulfonyl)benzamide] | 72 | 95
13 | CC1(C)CCC(CN2CCN(c3ccc(C(=O)NS(=O)(=O)c4cc5c(c([N+](=O)[O-])c4)N[C@H](CO)CO5)c(Oc4cnc5[nH]ccc5c4)c3)CC2)=C(c2ccc(Cl)cc2)C1 [Example 2-8, (R)-2-((1H-pyrrolo[2,3-b]pyridin-5-yl)oxy)-4-(4-((4′-chloro-5,5-dimethyl-3,4,5,6-tetra-hydro-[1,1′-biphenyl]-2-yl)methyl)piperazin-1-yl)-N-((3-(hydroxymethyl)-5-nitro-3,4-dihydro-2H-benzo[b][1,4]oxazin-7-yl)sulfonyl)benzamide] | 14 | 67
